Laboratory results taken from patent US11052154B2, “Ras protein degradation inducing molecule and pharmaceutical composition” (Tokyo University of Science Foundation, priority 2016, dated 2021).

Legend:
[1] = target: T1, G12V mutant K-Ras protein (Homo sapiens, UniProt P01116, G12V); assay: Degradation (knockdown) of G12V mutant K-Ras protein forcibly expressed in HeLa cells, FACS analysis; assay type: cell-based; settings: FIG. 3
T1 construct: expressed in transfected cells; host or cells: HeLa
Description: HeLa cells into which the plasmid had been introduced were seeded in a 24-well plate at a cell density of 4×10^4 cells/well, and then cultured under conditions of 37° C. and 5 vol % CO2 for 40 hours.
DMSO was used as a control.

[2] = Acute toxicity, single oral dose in Jcl:ICR mice; assay type: in vivo, mouse
Description: Acute toxicity when TUS-007 was orally administered to Jcl:ICR mice (8 weeks old, female) (CLEA Japan, Inc.) in a single dose of 80 mg/kg body weight, 300 mg/kg body weight, or 1000 mg/kg body weight was evaluated.

[3] = target: T2, SOS1 protein (Homo sapiens, UniProt Q07889); assay: Amount of SOS1 protein in HeLa cells, Western blot analysis; assay type: cell-based; settings: 48 hours after addition, vs control (DMSO), FIG. 5
T2 construct: endogenous in cells; host or cells: HeLa
T2 sequence (Q07889 1-1333): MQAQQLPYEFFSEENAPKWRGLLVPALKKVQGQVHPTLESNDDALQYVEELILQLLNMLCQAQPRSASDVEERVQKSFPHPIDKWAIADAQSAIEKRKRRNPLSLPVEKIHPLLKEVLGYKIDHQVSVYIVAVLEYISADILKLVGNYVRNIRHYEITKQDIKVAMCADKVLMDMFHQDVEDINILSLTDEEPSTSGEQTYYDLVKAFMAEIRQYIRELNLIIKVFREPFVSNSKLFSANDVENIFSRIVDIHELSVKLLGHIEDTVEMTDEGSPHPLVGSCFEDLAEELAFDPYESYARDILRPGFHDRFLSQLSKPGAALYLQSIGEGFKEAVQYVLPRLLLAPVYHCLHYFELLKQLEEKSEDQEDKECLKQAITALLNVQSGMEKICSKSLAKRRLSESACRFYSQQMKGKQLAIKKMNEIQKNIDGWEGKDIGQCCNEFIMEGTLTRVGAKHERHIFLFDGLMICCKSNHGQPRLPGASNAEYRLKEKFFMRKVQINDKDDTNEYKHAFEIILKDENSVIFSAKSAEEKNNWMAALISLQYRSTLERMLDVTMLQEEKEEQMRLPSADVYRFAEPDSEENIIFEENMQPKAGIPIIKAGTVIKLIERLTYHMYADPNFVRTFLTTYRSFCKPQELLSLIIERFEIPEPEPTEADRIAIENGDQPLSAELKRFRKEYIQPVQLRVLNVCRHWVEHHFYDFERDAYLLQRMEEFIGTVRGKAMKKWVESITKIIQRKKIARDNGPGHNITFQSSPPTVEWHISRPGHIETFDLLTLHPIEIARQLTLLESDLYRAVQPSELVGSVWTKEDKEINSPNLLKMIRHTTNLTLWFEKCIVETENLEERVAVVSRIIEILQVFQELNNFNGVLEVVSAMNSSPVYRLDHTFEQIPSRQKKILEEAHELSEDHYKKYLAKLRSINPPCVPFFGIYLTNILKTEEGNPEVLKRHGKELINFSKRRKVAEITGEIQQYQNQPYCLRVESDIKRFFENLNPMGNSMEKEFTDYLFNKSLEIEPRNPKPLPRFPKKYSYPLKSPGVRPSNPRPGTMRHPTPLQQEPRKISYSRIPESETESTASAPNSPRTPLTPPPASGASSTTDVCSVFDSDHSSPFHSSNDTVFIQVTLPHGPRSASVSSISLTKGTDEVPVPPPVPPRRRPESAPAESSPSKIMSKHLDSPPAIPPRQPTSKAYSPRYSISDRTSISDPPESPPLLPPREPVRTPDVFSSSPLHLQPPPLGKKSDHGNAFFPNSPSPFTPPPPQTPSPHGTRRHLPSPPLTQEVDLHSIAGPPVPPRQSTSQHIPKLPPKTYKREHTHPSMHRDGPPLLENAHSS

T1 sequence (P01116 1-188 isoform P01116-2 G12V): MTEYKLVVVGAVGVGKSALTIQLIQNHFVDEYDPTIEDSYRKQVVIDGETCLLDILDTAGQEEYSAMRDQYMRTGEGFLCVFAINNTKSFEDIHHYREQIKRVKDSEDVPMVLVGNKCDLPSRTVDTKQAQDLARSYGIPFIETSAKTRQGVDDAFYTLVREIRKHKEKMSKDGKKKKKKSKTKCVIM

SMILES: CCC(C)[C@H](NC(=O)CCCCCCNC(=O)[C@H](CC(C)C)NC(=O)CNC(=O)c1cc(Cl)ccc1Cl)C(=O)Nc1ccc2[nH]c(Cc3c[nH]c4ccccc34)nc2c1 (stereo in doubt) [TUS-007]
- degradation of the G12V mutant K-Ras protein when both TUS-007 and MLN2238 were added ([1]; MLN2238 co-added, compared with TUS-007 alone): G12D mutant and G12V mutant K-Ras protein degradation was inhibited
- degradation (knockdown) of the G12V mutant K-Ras protein (shift of GFP/DsRed ratio graph) ([1]; vs control (DMSO)): degradation of the G12D mutant and the G12V mutant K-Ras protein was induced
- LD50 ([2]; single oral dose): > 1000 mg/kg body weight
- general condition of the mice (acute toxicity) ([2]; single oral dose of 80, 300 or 1000 mg/kg body weight): no abnormality in the general condition of the mice
- amount of the SOS1 protein (Western blot) [3]: the amount of the SOS1 protein was not reduced
